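All cell lines were grown in 96-well plates and treated with compound for 48 hours. Here, GI50 denotes the concentration required for 50% inhibition of growth.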 Active and inactive are the calls of the source. No stated cut-off is given here; in the data, active = GI50 up to about 1.1 µM and inactive = higher.
Columns and labels:
Assay in all cases: DTP human tumour cell line panel, 48 h
CCRF-CEM = tested on: CCRF-CEM
LOX IMVI = tested on: LOX IMVI
MOLT-4 = tested on: MOLT-4
OVCAR-8 = tested on: OVCAR-8
DMS-114 = tested on: DMS-114
M19-MEL = tested on: M19-MEL
Malme-3M = tested on: Malme-3M
HCT-15 = tested on: HCT-15
HL-60 = tested on: HL-60
K562 = tested on: K562
HT-29 = tested on: HT-29
SK-MEL-5 = tested on: SK-MEL-5
SK-OV-3 = tested on: SK-OV-3
UACC-62 = tested on: UACC-62
UO-31 = tested on: UO-31
SK-MEL-28 = tested on: SK-MEL-28
UACC-257 = tested on: UACC-257
TK-10 = tested on: TK-10

SMILES	GI50 (CCRF-CEM)	GI50 (LOX IMVI)	GI50 (MOLT-4)	GI50 (OVCAR-8)	GI50 (DMS-114)	GI50 (M19-MEL)	GI50 (Malme-3M)	GI50 (HCT-15)	GI50 (HL-60)	GI50 (K562)	GI50 (HT-29)	GI50 (SK-MEL-5)	GI50 (SK-OV-3)	GI50 (UACC-62)	GI50 (UO-31)	GI50 (SK-MEL-28)	GI50 (UACC-257)	GI50 (TK-10)
CC(C)(c1cn(Cc2ccccc2)c2ccccc12)c1cn(Cc2ccccc2)c2ccccc12	> 100 µM (inactive)	> 100 µM (inactive)	> 100 µM (inactive)	> 100 µM (inactive)	> 100 µM (inactive)	> 100 µM (inactive)	1.94 µM (inactive)	> 100 µM	> 100 µM (inactive)	> 100 µM (inactive)	> 100 µM (inactive)	> 100 µM (inactive)	> 100 µM (inactive)	> 100 µM (inactive)				
COC(=O)C1=C(C(=O)OC)C2(C3C(SC)=CC(C)(C)CC3S1)N(Cc1ccccc1)CCN2Cc1ccccc1 (centres undefined)	> 100 µM (inactive)	> 100 µM (inactive)	> 100 µM (inactive)	> 100 µM (inactive)	> 100 µM (inactive)	> 100 µM (inactive)	> 100 µM (inactive)	> 100 µM		62.7 µM (inactive)	> 100 µM (inactive)	65.5 µM (inactive)	> 100 µM (inactive)	> 100 µM (inactive)	> 100 µM (inactive)	> 100 µM (inactive)	> 100 µM (inactive)	> 100 µM (inactive)
C[N+]1(C)CCCC1C(=O)[O-] (centres undefined)	> 100 µM (inactive)	> 100 µM (inactive)	> 100 µM (inactive)	> 100 µM (inactive)	> 100 µM (inactive)	> 100 µM (inactive)	> 100 µM (inactive)	> 100 µM	> 100 µM (inactive)	> 100 µM (inactive)	> 100 µM (inactive)		> 100 µM (inactive)	> 100 µM (inactive)	> 100 µM (inactive)	> 100 µM (inactive)	> 100 µM (inactive)	> 100 µM (inactive)
CCCCCCCCCCCC(=O)C1=C(O)CC(O)CC1=O (centres undefined)	62.2 µM (inactive)	54.6 µM (inactive)	88.1 µM (inactive)	74.1 µM (inactive)	64.3 µM (inactive)	> 100 µM (inactive)			23.1 µM (inactive)	42.2 µM (inactive)	> 100 µM (inactive)	> 100 µM (inactive)	> 100 µM (inactive)	95.1 µM (inactive)	64.4 µM (inactive)	> 100 µM (inactive)	> 100 µM (inactive)	> 100 µM (inactive)
CC(=O)c1c2c(cc3c1CC1(C3)Cc3cc4c(c(C(C)=O)c3C1)CCC4)CCC2	> 100 µM (inactive)	> 100 µM (inactive)	73.1 µM (inactive)	> 100 µM (inactive)	> 100 µM (inactive)	> 100 µM (inactive)	40.3 µM (inactive)		19.3 µM (inactive)	38 µM (inactive)	> 100 µM (inactive)	> 100 µM (inactive)		> 100 µM (inactive)	> 100 µM (inactive)	> 100 µM (inactive)	> 100 µM (inactive)	> 100 µM (inactive)
N#CC1CC2(CCN1C(=O)c1ccccc1)OCCO2 (centres undefined)	> 100 µM (inactive)		> 100 µM (inactive)	> 100 µM (inactive)	> 100 µM (inactive)	> 100 µM (inactive)	> 100 µM (inactive)	> 100 µM	> 100 µM (inactive)	> 100 µM (inactive)	> 100 µM (inactive)	> 100 µM (inactive)	> 100 µM (inactive)	> 100 µM (inactive)	> 100 µM (inactive)		> 100 µM (inactive)	> 100 µM (inactive)
COc1ccc(-c2cc(=O)c3ccc(O)cc3o2)c(OC)c1OC	42.8 µM (inactive)	60.7 µM (inactive)			33.2 µM (inactive)	74.3 µM (inactive)	> 100 µM (inactive)		31.6 µM (inactive)	29.6 µM (inactive)	60.4 µM (inactive)		90.6 µM (inactive)	36.2 µM (inactive)		64.3 µM (inactive)	94 µM (inactive)	78.3 µM (inactive)

From ChEMBL document CHEMBL1201862, “PubChem BioAssay data set” (2004)
